Test [1] is described as follows: cytotoxicity in BJeH fibroblasts, dose response, counter-screen for Ras selective lethality project, BJeH cells, dry powder (AID 493054). It is filed as functional, cell-based. (The purpose of a counterscreen is to sort out artefacts and off-target activity.)
In test [2] the target is Scavenger receptor class B member 1 (Mus musculus, UniProt Q61009). Put plainly: inhibitors of SR-BI mediated HDL lipid uptake, dose response, ldlA[mSR-BI] cells, fluorescence, cherry pick (AID 493194).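 Also: cellular uptake of fluorescent DiI-labeled HDL measured as cell fluorescence.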 Type of test: functional, cell-based.
Test [3] deals with Protein phosphatase methylesterase 1 (Homo sapiens, UniProt Q9Y570). Put plainly: PME-1 inhibitor potency by in-gel ABPP, dose response, selectivity assay for PME-1 inhibitor project, cell lysate, mouse brain cytosol, FP-rhodamine, panel member PME-1 Assay Panel member description: Inhibition of endogenously expressed PME-1 (AID 2366).
Test [4] concerns the target Beta-galactosidase (Escherichia coli, UniProt Q8VNN2). In words: beta-galactosidase enzyme inhibitors and activators, dose response, artefact control for CCR6 antagonist project, biochemical, E. coli enzyme, set 3 (AID 504712). Type of test: functional.
Test [5] concerns the target C-C chemokine receptor type 6 (Homo sapiens, UniProt P51684). In words: CCR6 receptor antagonists, dose response, cell-based, luminescent beta-arrestin readout (AID 504728). It is filed as functional.
Test [6] deals with Procathepsin L (Homo sapiens, UniProt P07711).
The target of test [7] is T1, Mannose-6-phosphate isomerase (Homo sapiens, UniProt P34949).
T1 sequence (P34949 whole entry): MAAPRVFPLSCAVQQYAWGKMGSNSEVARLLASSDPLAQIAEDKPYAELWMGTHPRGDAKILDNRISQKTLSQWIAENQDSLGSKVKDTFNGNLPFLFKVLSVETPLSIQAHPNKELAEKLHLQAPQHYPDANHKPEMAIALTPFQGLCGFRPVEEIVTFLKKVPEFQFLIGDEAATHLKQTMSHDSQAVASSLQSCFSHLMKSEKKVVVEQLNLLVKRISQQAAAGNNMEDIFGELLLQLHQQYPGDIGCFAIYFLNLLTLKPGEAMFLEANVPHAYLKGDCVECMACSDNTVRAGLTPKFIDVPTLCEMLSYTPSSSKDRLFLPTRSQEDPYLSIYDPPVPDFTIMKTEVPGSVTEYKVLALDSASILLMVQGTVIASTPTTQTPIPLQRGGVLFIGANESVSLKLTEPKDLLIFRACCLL
Put plainly: inhibitors of human PMI, primary screen, biochemical, fluorescence intensity, coupled assay (AID 1209).

Test [8] addresses T1, Mannose-6-phosphate isomerase. In words: human PMI inhibitors, high substrate, primary screen, biochemical, fluorescence intensity, high mannose 6-phosphate (AID 1220).
The target of test [9] is Aspartyl aminopeptidase (Plasmodium falciparum 3D7, UniProt Q8I2J3).
Test [10] has as its target T2, Voltage-gated N-type calcium channel alpha-1B subunit/Amyloid beta A4 precursor protein-binding family A member 1 (Homo sapiens, UniProt Q00975+Q02410). In words: disruptors of Mint-PDZ/N-type channel peptide interaction – biochemical, HTRF, set 2, SAR follow-up (AID 434980). It is filed as functional. (In TR-FRET formats the signal depends on donor and acceptor labels being close together.)

Test [11] addresses SUMO E1/E2 (Homo sapiens, UniProt P63279+Q9UBE0+Q9UBT2). In words: SAR analysis of SUMOylation using HTRF in an in-Vitro dose response assay. [Related pubchem assays (depositor defined):AID2006, AID2011, AID2018, AID2069, AID2658]. Type of test: functional.
Test [12] deals with T2, Voltage-gated N-type calcium channel alpha-1B subunit/Amyloid beta A4 precursor protein-binding family A member 1. In words: disruptors of Mint-PDZ/N-type channel peptide interaction – biochemical, HTRF, SAR follow-up (AID 2489). Type of test: functional.
For test [13], the system named is Staphylococcus aureus. Put plainly: Inhibitors of Bacterial Quorum Sensing Structure Activity Relationship (SAR) Analysis: Dose Response Assay. [Related pubchem assays: 700, 527 ]. It is filed as functional, organism-based.

The source made the active and inactive calls. Bounds are passed on as bounds.

T2 sequence (Q00975 whole entry): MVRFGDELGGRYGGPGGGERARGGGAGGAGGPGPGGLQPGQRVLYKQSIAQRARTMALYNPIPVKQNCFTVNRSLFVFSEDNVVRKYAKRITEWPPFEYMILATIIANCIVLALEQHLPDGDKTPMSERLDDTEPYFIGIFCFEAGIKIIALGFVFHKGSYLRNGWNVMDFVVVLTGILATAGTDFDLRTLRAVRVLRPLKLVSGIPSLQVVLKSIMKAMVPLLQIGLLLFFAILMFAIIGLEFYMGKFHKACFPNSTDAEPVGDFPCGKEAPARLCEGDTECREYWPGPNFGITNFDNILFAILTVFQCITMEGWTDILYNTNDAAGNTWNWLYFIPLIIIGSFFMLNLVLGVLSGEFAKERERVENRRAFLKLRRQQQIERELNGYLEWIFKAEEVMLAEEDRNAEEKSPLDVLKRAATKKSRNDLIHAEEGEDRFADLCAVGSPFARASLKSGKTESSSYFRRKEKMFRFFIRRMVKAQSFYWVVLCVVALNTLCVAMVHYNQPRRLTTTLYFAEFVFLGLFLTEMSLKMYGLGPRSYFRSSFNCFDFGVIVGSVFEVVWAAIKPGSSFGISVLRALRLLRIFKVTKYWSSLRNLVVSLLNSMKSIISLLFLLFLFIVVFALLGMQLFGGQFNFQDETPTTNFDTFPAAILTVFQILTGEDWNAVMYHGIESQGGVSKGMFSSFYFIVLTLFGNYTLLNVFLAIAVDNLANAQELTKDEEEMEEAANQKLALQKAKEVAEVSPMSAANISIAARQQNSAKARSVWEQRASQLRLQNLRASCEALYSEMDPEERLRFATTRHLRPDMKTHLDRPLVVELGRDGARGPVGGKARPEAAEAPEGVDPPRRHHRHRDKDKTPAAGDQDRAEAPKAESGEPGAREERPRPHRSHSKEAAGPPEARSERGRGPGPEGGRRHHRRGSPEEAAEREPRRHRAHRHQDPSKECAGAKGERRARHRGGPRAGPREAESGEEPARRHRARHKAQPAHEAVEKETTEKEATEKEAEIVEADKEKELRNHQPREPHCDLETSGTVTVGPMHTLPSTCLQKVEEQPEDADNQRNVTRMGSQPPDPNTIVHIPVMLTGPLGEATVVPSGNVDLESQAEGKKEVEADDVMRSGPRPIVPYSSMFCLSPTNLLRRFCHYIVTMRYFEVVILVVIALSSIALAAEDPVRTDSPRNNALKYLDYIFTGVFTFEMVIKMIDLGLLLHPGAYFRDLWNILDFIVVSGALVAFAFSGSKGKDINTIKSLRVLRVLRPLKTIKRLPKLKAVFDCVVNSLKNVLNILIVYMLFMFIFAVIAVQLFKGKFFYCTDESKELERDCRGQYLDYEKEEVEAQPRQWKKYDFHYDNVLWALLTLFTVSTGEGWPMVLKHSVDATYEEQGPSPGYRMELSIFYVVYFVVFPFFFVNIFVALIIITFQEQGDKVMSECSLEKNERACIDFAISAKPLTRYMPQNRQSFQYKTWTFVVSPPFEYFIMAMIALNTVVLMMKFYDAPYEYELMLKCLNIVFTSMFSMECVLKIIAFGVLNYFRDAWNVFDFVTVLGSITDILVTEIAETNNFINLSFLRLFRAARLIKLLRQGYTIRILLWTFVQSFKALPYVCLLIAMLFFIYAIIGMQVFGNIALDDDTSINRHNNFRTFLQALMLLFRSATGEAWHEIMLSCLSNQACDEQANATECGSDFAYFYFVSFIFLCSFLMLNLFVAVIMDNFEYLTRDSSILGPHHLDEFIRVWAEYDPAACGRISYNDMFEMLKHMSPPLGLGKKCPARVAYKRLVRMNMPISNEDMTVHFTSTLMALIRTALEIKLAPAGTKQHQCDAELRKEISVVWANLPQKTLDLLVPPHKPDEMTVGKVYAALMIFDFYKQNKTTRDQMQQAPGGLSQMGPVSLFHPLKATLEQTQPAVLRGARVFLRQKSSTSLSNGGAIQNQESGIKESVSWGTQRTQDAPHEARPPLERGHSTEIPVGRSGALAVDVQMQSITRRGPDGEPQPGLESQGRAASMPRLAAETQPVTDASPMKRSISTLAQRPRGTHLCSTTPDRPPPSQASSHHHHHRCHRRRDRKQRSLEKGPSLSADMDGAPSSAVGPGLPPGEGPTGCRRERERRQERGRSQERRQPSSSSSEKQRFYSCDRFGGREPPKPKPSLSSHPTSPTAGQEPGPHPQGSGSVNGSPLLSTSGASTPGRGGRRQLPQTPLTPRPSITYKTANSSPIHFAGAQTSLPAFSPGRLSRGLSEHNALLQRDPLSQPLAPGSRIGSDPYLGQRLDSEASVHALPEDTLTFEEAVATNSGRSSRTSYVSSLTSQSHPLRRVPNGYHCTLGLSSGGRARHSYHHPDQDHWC
T2 sequence (Q02410 whole entry): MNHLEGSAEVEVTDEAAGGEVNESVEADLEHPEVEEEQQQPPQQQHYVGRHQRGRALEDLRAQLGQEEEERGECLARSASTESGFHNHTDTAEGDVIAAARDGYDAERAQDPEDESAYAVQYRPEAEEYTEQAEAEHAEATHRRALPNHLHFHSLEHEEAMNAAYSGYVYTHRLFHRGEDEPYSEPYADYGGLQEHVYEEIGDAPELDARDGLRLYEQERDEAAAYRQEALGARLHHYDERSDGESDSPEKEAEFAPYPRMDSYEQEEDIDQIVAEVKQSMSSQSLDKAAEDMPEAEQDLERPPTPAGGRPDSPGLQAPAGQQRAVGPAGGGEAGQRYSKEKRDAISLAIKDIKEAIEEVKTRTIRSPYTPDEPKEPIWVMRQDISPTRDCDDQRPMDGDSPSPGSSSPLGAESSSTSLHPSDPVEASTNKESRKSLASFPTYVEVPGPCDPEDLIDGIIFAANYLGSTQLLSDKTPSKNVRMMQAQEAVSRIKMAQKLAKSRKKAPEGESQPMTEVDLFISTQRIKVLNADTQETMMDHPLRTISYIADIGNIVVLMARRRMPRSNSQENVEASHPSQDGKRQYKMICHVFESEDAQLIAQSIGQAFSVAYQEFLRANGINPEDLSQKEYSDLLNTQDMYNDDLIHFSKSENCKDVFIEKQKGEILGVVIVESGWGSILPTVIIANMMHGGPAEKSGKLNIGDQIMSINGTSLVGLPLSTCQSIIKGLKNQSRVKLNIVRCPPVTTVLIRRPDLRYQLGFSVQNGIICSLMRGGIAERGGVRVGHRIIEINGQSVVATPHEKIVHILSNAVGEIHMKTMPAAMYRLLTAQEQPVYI
Chain of Beta-galactosidase (Q8VNN2 whole entry): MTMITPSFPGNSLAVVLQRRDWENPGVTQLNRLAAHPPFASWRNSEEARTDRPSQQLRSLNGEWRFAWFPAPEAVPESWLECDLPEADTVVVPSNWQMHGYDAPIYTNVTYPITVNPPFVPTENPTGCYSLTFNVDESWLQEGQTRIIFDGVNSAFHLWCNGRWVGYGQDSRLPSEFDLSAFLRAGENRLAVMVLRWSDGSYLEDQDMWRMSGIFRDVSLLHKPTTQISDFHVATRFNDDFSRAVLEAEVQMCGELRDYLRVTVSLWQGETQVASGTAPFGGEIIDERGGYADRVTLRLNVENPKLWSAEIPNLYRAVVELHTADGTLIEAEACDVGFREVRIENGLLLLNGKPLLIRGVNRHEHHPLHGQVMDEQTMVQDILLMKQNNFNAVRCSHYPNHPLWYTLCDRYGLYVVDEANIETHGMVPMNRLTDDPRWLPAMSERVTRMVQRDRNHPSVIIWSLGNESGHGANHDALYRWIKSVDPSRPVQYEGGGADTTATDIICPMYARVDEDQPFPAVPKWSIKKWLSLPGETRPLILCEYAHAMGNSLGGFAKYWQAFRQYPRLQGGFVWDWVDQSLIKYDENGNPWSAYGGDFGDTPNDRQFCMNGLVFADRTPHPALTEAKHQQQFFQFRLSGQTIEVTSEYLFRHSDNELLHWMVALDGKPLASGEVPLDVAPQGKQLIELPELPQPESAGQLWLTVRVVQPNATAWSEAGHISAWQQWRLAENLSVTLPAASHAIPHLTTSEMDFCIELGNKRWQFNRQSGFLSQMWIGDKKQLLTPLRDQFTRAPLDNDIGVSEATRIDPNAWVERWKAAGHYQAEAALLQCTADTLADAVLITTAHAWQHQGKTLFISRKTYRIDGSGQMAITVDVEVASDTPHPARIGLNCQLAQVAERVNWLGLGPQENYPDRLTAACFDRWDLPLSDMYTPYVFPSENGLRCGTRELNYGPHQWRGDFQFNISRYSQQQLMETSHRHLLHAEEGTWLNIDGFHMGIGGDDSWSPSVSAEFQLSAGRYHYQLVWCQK
Chain of Procathepsin L (P07711 whole entry): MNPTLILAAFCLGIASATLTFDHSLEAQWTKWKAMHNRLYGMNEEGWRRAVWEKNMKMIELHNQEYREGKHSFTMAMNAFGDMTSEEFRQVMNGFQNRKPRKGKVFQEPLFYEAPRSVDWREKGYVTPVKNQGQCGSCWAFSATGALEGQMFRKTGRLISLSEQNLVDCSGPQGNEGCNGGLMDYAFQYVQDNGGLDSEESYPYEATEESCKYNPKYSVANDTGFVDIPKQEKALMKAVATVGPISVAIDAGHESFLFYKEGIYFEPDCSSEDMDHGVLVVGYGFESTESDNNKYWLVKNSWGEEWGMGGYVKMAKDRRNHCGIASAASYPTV
Chain of Protein phosphatase methylesterase 1 (Q9Y570 whole entry): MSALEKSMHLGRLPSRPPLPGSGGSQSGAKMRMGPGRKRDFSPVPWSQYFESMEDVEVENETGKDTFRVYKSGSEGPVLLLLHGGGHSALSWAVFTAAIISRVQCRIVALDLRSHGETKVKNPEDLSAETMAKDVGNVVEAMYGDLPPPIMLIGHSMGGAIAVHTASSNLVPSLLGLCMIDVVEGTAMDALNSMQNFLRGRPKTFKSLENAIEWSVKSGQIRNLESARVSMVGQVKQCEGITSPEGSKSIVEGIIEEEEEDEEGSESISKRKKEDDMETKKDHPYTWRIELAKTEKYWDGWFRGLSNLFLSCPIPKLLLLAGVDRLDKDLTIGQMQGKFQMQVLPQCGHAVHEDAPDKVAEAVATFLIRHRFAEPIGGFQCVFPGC

With `COc1ccc(N(C(=O)CSc2ncccn2)C(C(=O)NCCc2ccccc2)c2cccs2)cc1Cl` (stereo not drawn), the AC50 in test [1] was > 381 µM (inactive).
On to `COc1cc(NC(=O)c2ccco2)c(OC)cc1NC(=O)Nc1ccc(Cl)cc1`, for which the AC50 in test [2] was 6.53 µM (active).
For the compound `CS(=O)(=O)/C(C#N)=C/c1cccn1S(=O)(=O)c1ccc([N+](=O)[O-])cc1[N+](=O)[O-]`, in test [3], the IC50 was > 20 µM (inactive).
For `COC(=O)N/N=C/c1cc(N=Nc2ccccc2Cl)ccc1O`, the IC50 in [4] and in test [5] was > 66.6 µM (inactive) in each case.
As to `CCOC(=O)NC1(Nc2ccc(C)cc2)Oc2ccccc2O1`, the IC50 in [6] was > 59.6 µM (not active); in test [7], > 50 µM (not active); in test [8], > 50 µM (not active); in test [9], 5.07 µM (active).
For the compound `COC(=O)c1ccc(CNC(=O)COC(=O)c2cc(-c3ccco3)nc3ccccc23)cc1`, the IC50 in test [10] is 6.74 µM (active); in test [11], 2.23 µM (active); in test [12], 19.2 µM (active).
For the compound `CC1CCN(C(C(=O)Nc2ccc(C(C)C)cc2)c2ccc3c(c2)OCO3)CC1` (stereo not drawn), the IC50 in test [13] was 0.717 µM (active).

For orientation: AC50 means the concentration at which the activity in the assay is half-maximal. The term IC50 denotes the concentration that inhibits the measured activity by half.
